Data on five compounds can be found in patent US20160206583A1, “AMINO ACID TREATMENT OF SEIZURES” (THE JOHNS HOPKINS UNIVERSITY, priority 2013, published 2016).

Each structure is given as a SMILES string.

Data set [1] has as its system kainic acid-induced seizures. Briefly: Kainic acid status epilepticus test. Type of data set: in vivo, mice. How it is done:
Male NIH Swiss mice (NCI, Frederick, Md., U.S.A.) aged 3-4 weeks were acclimatized to the animal care facility for 1-5 days and housed four per cage. All mice were fed unrestricted normal rodent chow (Teklad Global 2018SX, Madison, Wis., U.S.A.). Only in experiments lasting 2 weeks, mice were fasted overnight before the D-leucine was administered in drinking water.
[…] Louis, Mo., U.S.A.) or given D-leucine in drinking water (1.5% w/v) for 13 days after an initial overnight fast. […] Louis, Mo., U.S.A.).
Each mouse was tested for seizures only once. Personnel performing seizure testing and assessments were blinded to treatment group assignments. Seizure tests were performed 3 h following a single dose of D-leucine, 15-25 min after the administration of kainic acid, or after 13 days of D-leucine exposure in drinking water.
Kainic acid was injected intraperitoneally (22.5-25 mg kainic acid/kg mouse body mass, 5.3 mg/ml PBS, Tocris Bioscience, Ellisville, Mo., U.S.A.) as described previously (Hartman et al., 2012). Mice were observed continuously in plexiglass cages for the duration of the experiment. Seizure behaviors were scored for 2 h using a modified Racine scale (the highest score in a given 5-min block was used): 0, no seizure; 1, immobility; 2, forelimb and/or tail extension; 3, automatisms; 4, forelimb clonus, rearing, and/or falling; 5, repetition of stage 4; 6, tonic-clonic seizures; and 7, death (Hartman et al., 2010). As the mouse behaviors only occur intermittently, the highest seizure score achieved in a 5 min epoch was recorded.
Probit analyses (used in the 6 Hz test to determine the current where half the mice experienced any seizure behavior, or CC50, was performed using Minitab 16 (State College, Pa., U.S.A.). The level of significance in the 6 Hz test was 0.05. T-tests and one-way ANOVAs were performed using GraphPad Prism 4 (LaJolla, Calif., U.S.A.). In the kainic acid test, one-way ANOVAs were performed for multiple comparisons of 3 treatment groups. When 2 groups were compared in the kainic acid test, the level of significance was 0.01 (because 3-4 parameters were measured simultaneously, this represents a Bonferroni correction of a typical level of significance of 0.05).

The subject of a further data set is 6 Hz-induced seizures. Kind of data set: 6 Hz test. Type of data set: in vivo, mice. As to conditions: D-leucine 1.5% w/v in drinking water for 13 days. As to the method: Male NIH Swiss mice (NCI, Frederick, Md., U.S.A.) aged 3-4 weeks were acclimatized to the animal care facility for 1-5 days and housed four per cage. All mice were fed unrestricted normal rodent chow (Teklad Global 2018SX, Madison, Wis., U.S.A.). Only in experiments lasting 2 weeks, mice were fasted overnight before the D-leucine was administered in drinking water. At 5 weeks of age, mice were injected intraperitoneally with D-leucine 3 mg/kg (“low dose”) or 300 mg/kg (“high dose”) body weight (Sigma-Aldrich, St. Louis, Mo., U.S.A.) or given D-leucine in drinking water (1.5% w/v) for 13 days after an initial overnight fast. […] Probit analyses (used in the 6 Hz test to determine the current where half the mice experienced any seizure behavior, or CC50, was performed using Minitab 16 (State College, Pa., U.S.A.). The level of significance in the 6 Hz test was 0.05. T-tests and one-way ANOVAs were performed using GraphPad Prism 4 (LaJolla, Calif., U.S.A.). In the kainic acid test, one-way ANOVAs were performed for multiple comparisons of 3 treatment groups. When 2 groups were compared in the kainic acid test, the level of significance was 0.01 (because 3-4 parameters were measured simultaneously, this represents a Bonferroni correction of a typical level of significance of 0.05).

Another data set concerns AMPA receptor. The note with it: hippocampal neurons; Gong et al., 2007; cited from earlier work.
The subject of data set [2] is maximal electroshock-induced seizures. As to conditions: literature (Peterson, 1991; Kalinichev et al., 2010); cited from earlier work.
Another data set relates to amygdala-kindled rats. As to conditions: dose-dependent, Loscher et al., 1994; cited from earlier work.
Data set [3] has as its system GAERS (Genetic Absence Epilepsy Rats from Strasbourg) Wistar rats. The note with it: intracerebroventricular or intrathalamic routes; Koerner et al., 1996; cited from earlier work.
Data set [4] deals with picrotoxin-induced seizures. As to conditions: rats; Skeie et al., 1994; cited from earlier work.
Data set [5] concerns pentylenetetrazol-induced seizures. The note with it: Dufour et al., 1999, cited from earlier work.
Data set [6] concerns hexafluorodiethyl ether seizures. As to conditions: Gallagher, 1969; cited from earlier work.
The mark [7] stands for this setting: CBIO 10 mg/kg 15 min after kainic acid.
Where [8] appears, read: pretreatment, CBIO 10 mg/kg three hours prior to kainic acid.
[9] abbreviates: D-leucine 300 mg/kg 15 min after kainic acid (after seizure onset).
[10] abbreviates: pretreatment, D-leucine 3 mg/kg i.p. 3 h before kainic acid (23.5 mg/kg).
Setting [11] is: pretreatment, D-leucine 300 mg/kg i.p. 3 h before kainic acid (23.5 mg/kg).
Where [12] appears, read: D-serine 3 mg/kg 15 min after kainic acid.
Where [13] appears, read: D-serine 300 mg/kg 15 min after kainic acid.

With `Oc1noc2ccc(Cl)cc12` [CBIO, 5-chloro-benzo[d]isoxazol-3-ol], in data set [1] (setting [7]), the maximum seizure score entry is “no effect”, the mean seizure score result is “decrease” and the “number of epochs with a seizure stage ≧2” value is “decrease”. In addition, in data set [1] (setting [8]), the “latency to seizure stage ≧2” value is listed as “no effect”, the maximum seizure score entry is reported as “no effect”, the mean seizure score result is recorded as “decreased” and the “number of epochs with a seizure stage ≧2” value is given as “decreased”.
As to `CC(C)C[C@@H](N)C(=O)O` [D-leucine], the “CC50 (current where half of mice had a convulsion)” value with 6 Hz-induced seizures is given as “increased”. Moreover, the “protection against seizures induced by kainic acid” value in data set [1] (D-leucine 3 mg/kg 15 min after the onset of seizures (FIGS. 4C-4D)) is reported as “protects against seizures”. For the same compound, the “seizure outcome compared with diazepam (10 mg/kg)” value in [1] (D-leucine 3 mg/kg 20 min after kainic acid (25 mg/kg)) is listed as “not inferior to treatment with diazepam”. In data set [1] (setting [9]), the mean seizure score entry is “no effect” and the “number of epochs with a seizure score ≧2” value was “decreased”. For the same compound, in [1] (D-leucine 300 mg/kg 15 min after kainic acid (after seizure onset), trend noted), the maximum seizure score entry was “no effect”. Besides, in [1] (pretreatment, D-leucine 0.3 mg/kg 3 h before kainic acid (23.5 mg/kg)), the protection against seizures entry is on record as “did not protect against seizures”. In addition, in data set [1] (setting [10]), the mean seizure score result was “decreased” and the “number of epochs with a seizure stage ≧2” value is “decreased”. For the same compound, the maximum seizure score result in data set [1] (pretreatment, D-leucine 0.3, 3 or 300 mg/kg vs water, 3 h before kainic acid) is “no difference between groups”. For the same compound, in [1] (setting [11]), the “latency to onset of seizure stage ≧2” value was “prolonged”, the mean seizure score entry is “decreased” and the “number of epochs with a seizure stage ≧2” value is on record as “decreased”. For the same compound, in the data set on AMPA receptor, the “kainic acid-induced AMPA receptor-mediated current” value is “inactive”.
On to `N[C@H](CO)C(=O)O` [D-serine], for which, in [1] (setting [12]), the maximum seizure score entry was “decrease”, the mean seizure score result is given as “decrease” and the “number of epochs with a seizure stage ≧2” value is recorded as “decrease”. Also, in [1] (setting [13]), the maximum seizure score result is given as “no effect”, the mean seizure score entry was “decrease” and the “number of epochs with a seizure stage ≧2” value is recorded as “decrease”. Moreover, the “protection against maximal electroshock-induced seizures” value in [2] is listed as “weak but statistically significant protection”. Besides, the after discharge thresholds result with amygdala-kindled rats is given as “increases”. For the same compound, the “effect on spike wave discharges” value in data set [3] is recorded as “no effect”. The “kainic acid-induced AMPA receptor-mediated current” value in the data set on AMPA receptor is “inhibits”.
For the compound `CC(C)C[C@H](N)C(=O)O` [L-leucine], the “protection against picrotoxin-induced seizures” value in [4] is “protects”. Moreover, in data set [5] (rats), the “protection against pentylenetetrazol-induced seizures” value is given as “protects”. For the same compound, the “protection against hexafluorodiethyl ether seizures” value in [6] is given as “not”.
As for `CC(C)CC(=O)C(=O)O` [α-ketoisocaproic acid], in data set [5], the “activity in the PTZ test” value is “not active”.
